{"source": "paper PMC7170919", "about": "“The chloroalkaloid (−)-acutumine is biosynthesized via a Fe(II)- and 2-oxoglutarate-dependent halogenase in Menispermaceae plants” (Nature Communications, 2020)", "format_in_all_cases": "biochemical", "key": {"SaDAH [1]": {"target": "T1, SaDAH (Sinomenium acutum, UniProt A0A6M3RD65, G226D)", "T1 construct": "codon-optimized, N-terminal 8xHis-TEV tag (pHis8-4) cleaved, E. coli BL21(DE3)", "T1 sequence (A0A6M3RD65 entry or part of it G226D)": "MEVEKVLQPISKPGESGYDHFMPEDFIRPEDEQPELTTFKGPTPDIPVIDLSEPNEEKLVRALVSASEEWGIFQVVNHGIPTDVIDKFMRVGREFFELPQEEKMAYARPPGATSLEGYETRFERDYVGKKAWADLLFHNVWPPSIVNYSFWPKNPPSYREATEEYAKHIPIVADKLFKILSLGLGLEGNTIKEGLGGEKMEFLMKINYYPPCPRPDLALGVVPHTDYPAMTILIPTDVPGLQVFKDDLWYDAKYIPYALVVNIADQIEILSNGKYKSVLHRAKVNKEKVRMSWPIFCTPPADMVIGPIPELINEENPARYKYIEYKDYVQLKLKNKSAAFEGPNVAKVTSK", "experiment": "in vitro enzyme assay, LC-HRAM-MS", "settings": "2OG 500 µM, NaCl 1 mM, Fe(II) 2 mM, ascorbate 5 mM, Tris pH 8.0, room temperature; hydroxylation"}, "McDAH": {"target": "T2, McDAH (Menispermum canadense, UniProt A0A6M3RHU8)", "T2 sequence (A0A6M3RHU8 1-351)": "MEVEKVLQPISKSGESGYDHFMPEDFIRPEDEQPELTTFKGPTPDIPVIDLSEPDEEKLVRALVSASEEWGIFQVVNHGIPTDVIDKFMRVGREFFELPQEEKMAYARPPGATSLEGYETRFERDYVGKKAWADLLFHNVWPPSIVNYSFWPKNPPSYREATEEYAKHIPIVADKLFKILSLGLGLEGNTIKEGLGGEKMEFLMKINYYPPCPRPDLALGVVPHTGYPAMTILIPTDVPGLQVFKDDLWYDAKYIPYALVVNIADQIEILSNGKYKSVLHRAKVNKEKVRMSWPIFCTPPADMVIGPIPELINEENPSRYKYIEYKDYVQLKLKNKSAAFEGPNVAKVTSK", "experiment": "in vitro enzyme assay, LC-MS", "settings": "2OG-dependent chlorination, 1 mM NaCl"}, "SaDAH [2]": {"target": "T3, SaDAH (Sinomenium acutum, UniProt A0A6M3RD65)", "T3 construct": "codon-optimized, N-terminal 8xHis-TEV tag (pHis8-4) cleaved, E. coli BL21(DE3)", "T3 sequence (A0A6M3RD65 entry or part of it)": "as the sequence (A0A6M3RD65 entry or part of it G226D) above, with D226G counted along it", "experiment": "LC-MS quantification of (−)-acutumine formed", "settings": "2OG 500 µM, NaCl 1 mM, ascorbate 5 mM, (NH4)2Fe(SO4)2 2 mM; 30 nM enzyme, 10 min; chlorination"}}, "data": [{"smiles": "COC1=CC(=O)C2(CCC34C(OC)=C(OC)C(=O)CC23CCN4C)C1O", "note": "(single isomer, unassigned; (-)) [compound 5, (−)-dechloroacutumine]", "values": [{"measurement": "in vitro enzyme assay, LC-HRAM-MS", "setting": "SaDAH [1]", "value": "exhibits exclusive (−)-dechloroacutumine hydroxylase activity to give the hydroxylation product 11-hydroxy-dechloroacutumine"}, {"measurement": "in vitro enzyme assay, LC-MS", "setting": "McDAH", "value": "Recombinant McDAH exhibits identical activity to SaDAH"}, {"measurement": "Km", "setting": "SaDAH [2]", "value": "18.4 ± 7.13", "unit": "µM"}]}]}
